In patent US8426174B2, “Method for the production of 2-butanol” (Butamax(TM) Advanced Biofuels LLC, priority 2007, dated 2013):
Like-named read-outs stand apart in the source and are kept apart here.

Assays:
E. coli strain MG1655 [1] = tested on: E. coli strain MG1655
Protocol: For the stationary phase studies, E. coli strain MG1655 (ATCC #700926) was grown overnight in LB medium (Teknova, Half Moon Bay, Calif.) with shaking at 250 rpm at 42° C., 29° C. or 28° C. […] To these were added 10 μL of the overnight cultures and the tubes were immediately placed in shaking incubators at 42° C. or 28° C. or left on ice for 30 min. […] Then, 5 μL of the undiluted treated cultures were spotted on LB agar plates. Subsequent 10-fold serial dilutions of 10^−3, 10^−4, 10^−5 and 10^−6 of the exposed cultures were done by serial pipetting of 20 μL, starting with the 10^−2 dilution cultures, into 180 μL of LB medium in the microplate, using a multi-channel pipette. Prior to each transfer, the cultures were mixed by pipetting up and down six times. Each dilution (5 μL) was spotted onto an LB plate using a multi-channel pipette and allowed to soak into the plate. The plates were inverted and incubated overnight at 37° C. […] Survival of 0% was recorded when no colonies in the spots of the undiluted or any of the serial dilutions were observed.

E. coli strain MG1655 [2] = tested on: E. coli strain MG1655; remark: listed apart in the source
Protocol: A similar study was done with log-phase cultures of E. coli grown in a defined medium. E. coli strain MG1655 was allowed to grow overnight in MOPS 0.2% glucose medium (Teknova, Half Moon Bay, Calif.) at 42° C. or 28° C. The following day, the cultures were diluted into fresh medium and allowed to grow at the same temperature until in the log phase of growth. […] To these were added 10 μL of the log phase cultures and the tubes were immediately placed in shaking incubators at 42° C. or 28° C. or left on ice for 30 min. […] Then 5 μL of the undiluted treated cultures were spotted on LB agar plates. Subsequent 10-fold serial dilutions of 10^−3, 10^−4, 10^−5 and 10^−6 of the exposed cultures were done by serial pipetting of 20 μL, starting with the 10^−2 dilution cultures, into 180 μL of LB medium in the microplate, using a multi-channel pipette. Prior to each transfer, the cultures were mixed by pipetting up and down six times. Each dilution (5 μL) was spotted onto an LB plate using a multi-channel pipette and allowed to soak into the plate. The plates were inverted and incubated overnight at 37° C. […] Survival of 0% was recorded when no colonies in the spots of the undiluted or any of the serial dilutions were observed.

[3] = 1.0 % (w/v) 1-butanol, grown at 28° C.
[4] = 1.0 % (w/v) 1-butanol, grown at 29° C.
[5] = 1.0 % (w/v) 1-butanol, grown at 42° C.
[6] = 1.5 % (w/v) 1-butanol, grown at 28° C.
[7] = 1.5 % (w/v) 1-butanol, grown at 29° C.
[8] = 1.5 % (w/v) 1-butanol, grown at 42° C.
[9] = 2.0 % (w/v) 1-butanol, grown at 28° C.
[10] = 2.0 % (w/v) 1-butanol, grown at 29° C.
[11] = 2.0 % (w/v) 1-butanol, grown at 42° C.
[12] = 3.0 % (w/v) 1-butanol, grown at 28° C.
[13] = 3.0 % (w/v) 1-butanol, grown at 29° C.
[14] = 3.0 % (w/v) 1-butanol, grown at 42° C.
[15] = 4.0 % (w/v) 1-butanol, grown at 28° C.
[16] = 4.0 % (w/v) 1-butanol, grown at 29° C.
[17] = 4.0 % (w/v) 1-butanol, grown at 42° C.
[18] = 5.0 % (w/v) 1-butanol, grown at 29° C.
[19] = 5.0 % (w/v) 1-butanol, grown at 42° C.
[20] = 6.0 % (w/v) 1-butanol, grown at 29° C.
[21] = 6.0 % (w/v) 1-butanol, grown at 42° C.
[22] = […] (w/v) 1-butanol, grown at 29° C.
[23] = […] (w/v) 1-butanol, grown at 42° C.

Substance: 1-butanol
- % survival after 30 min exposure at 28° C. (E. coli strain MG1655 [1]; [3]): 100%
- % survival after 30 min exposure at 0° C. (E. coli strain MG1655 [1]; [4]): 100%
- % survival after 30 min exposure at 42° C. (E. coli strain MG1655 [1]; [4]): 100%
- % survival after 30 min exposure at 0° C. (E. coli strain MG1655 [1]; [5]): 100%
- % survival after 30 min exposure at 28° C. (E. coli strain MG1655 [1]; [5]): 100%
- % survival after 30 min exposure at 42° C. (E. coli strain MG1655 [1]; [5]): 100%
- % survival after 30 min exposure at 28° C. (E. coli strain MG1655 [1]; [6]): 100%
- % survival after 30 min exposure at 0° C. (E. coli strain MG1655 [1]; [7]): 100%
- % survival after 30 min exposure at 42° C. (E. coli strain MG1655 [1]; [7]): 0.1%
- % survival after 30 min exposure at 0° C. (E. coli strain MG1655 [1]; [8]): 100%
- % survival after 30 min exposure at 28° C. (E. coli strain MG1655 [1]; [8]): 100%
- % survival after 30 min exposure at 42° C. (E. coli strain MG1655 [1]; [8]): 0.1%
- % survival after 30 min exposure at 28° C. (E. coli strain MG1655 [1]; [9]): 100%
- % survival after 30 min exposure at 0° C. (E. coli strain MG1655 [1]; [10]): 100%
- % survival after 30 min exposure at 42° C. (E. coli strain MG1655 [1]; [10]): 0.1%
- % survival after 30 min exposure at 0° C. (E. coli strain MG1655 [1]; [11]): 100%
- % survival after 30 min exposure at 28° C. (E. coli strain MG1655 [1]; [11]): 100%
- % survival after 30 min exposure at 42° C. (E. coli strain MG1655 [1]; [11]): 0%
- % survival after 30 min exposure at 28° C. (E. coli strain MG1655 [1]; [12]): 100%
- % survival after 30 min exposure at 0° C. (E. coli strain MG1655 [1]; [13]): 100%
- % survival after 30 min exposure at 42° C. (E. coli strain MG1655 [1]; [13]): 0%
- % survival after 30 min exposure at 0° C. (E. coli strain MG1655 [1]; [14]): 100%
- % survival after 30 min exposure at 28° C. (E. coli strain MG1655 [1]; [14]): 100%
- % survival after 30 min exposure at 42° C. (E. coli strain MG1655 [1]; [14]): 0%
- % survival after 30 min exposure at 28° C. (E. coli strain MG1655 [1]; [15]): 0.0003%
- % survival after 30 min exposure at 0° C. (E. coli strain MG1655 [1]; [16]): 100%
- % survival after 30 min exposure at 42° C. (E. coli strain MG1655 [1]; [16]): 0%
- % survival after 30 min exposure at 0° C. (E. coli strain MG1655 [1]; [17]): 100%
- % survival after 30 min exposure at 28° C. (E. coli strain MG1655 [1]; [17]): 0.0004%
- % survival after 30 min exposure at 42° C. (E. coli strain MG1655 [1]; [17]): 0%
- % survival after 30 min exposure at 0° C. (E. coli strain MG1655 [1]; [18]): 1%
- % survival after 30 min exposure at 0° C. (E. coli strain MG1655 [1]; [19]): 1%
- % survival after 30 min exposure at 0° C. (E. coli strain MG1655 [1]; [20]): 0.001%
- % survival after 30 min exposure at 0° C. (E. coli strain MG1655 [1]; [21]): 0%
- % survival after 30 min exposure at 0° C. (E. coli strain MG1655 [1]; 7.0 % (w/v) 1-butanol, grown at 29° C.): 0%
- % survival after 30 min exposure at 0° C. (E. coli strain MG1655 [1]; 7.0 % (w/v) 1-butanol, grown at 42° C.): 0%
- % survival after 30 min exposure at 0° C. (E. coli strain MG1655 [1]; [22]): 100%
- % survival after 30 min exposure at 42° C. (E. coli strain MG1655 [1]; [22]): 0%
- % survival after 30 min exposure at 0° C. (E. coli strain MG1655 [1]; [23]): 100%
- % survival after 30 min exposure at 42° C. (E. coli strain MG1655 [1]; [23]): 0%
- % survival after 30 min exposure at 42° C. (E. coli strain MG1655 [2]; [3]): 100%
- % survival after 30 min exposure at 42° C. (E. coli strain MG1655 [2]; [5]): 100%
- % survival after 30 min exposure at 28° C. (E. coli strain MG1655 [2]; [6]): 100%
- % survival after 30 min exposure at 42° C. (E. coli strain MG1655 [2]; [6]): 0%
- % survival after 30 min exposure at 28° C. (E. coli strain MG1655 [2]; [8]): 100%
- % survival after 30 min exposure at 42° C. (E. coli strain MG1655 [2]; [8]): 0%
- % survival after 30 min exposure at 28° C. (E. coli strain MG1655 [2]; [9]): 100%
- % survival after 30 min exposure at 42° C. (E. coli strain MG1655 [2]; [9]): 0%
- % survival after 30 min exposure at 28° C. (E. coli strain MG1655 [2]; [11]): 100%
- % survival after 30 min exposure at 42° C. (E. coli strain MG1655 [2]; [11]): 0%
- % survival after 30 min exposure at 28° C. (E. coli strain MG1655 [2]; [12]): 0%
- % survival after 30 min exposure at 42° C. (E. coli strain MG1655 [2]; [12]): 0%
- % survival after 30 min exposure at 0° C. (E. coli strain MG1655 [2]; [13]): 100%
- % survival after 30 min exposure at 0° C. (E. coli strain MG1655 [2]; [14]): 100%
- % survival after 30 min exposure at 28° C. (E. coli strain MG1655 [2]; [14]): 0%
- % survival after 30 min exposure at 42° C. (E. coli strain MG1655 [2]; [14]): 0%
- % survival after 30 min exposure at 28° C. (E. coli strain MG1655 [2]; [15]): 0%
- % survival after 30 min exposure at 42° C. (E. coli strain MG1655 [2]; [15]): 0%
- % survival after 30 min exposure at 0° C. (E. coli strain MG1655 [2]; [16]): 100%
- % survival after 30 min exposure at 0° C. (E. coli strain MG1655 [2]; [17]): 100%
- % survival after 30 min exposure at 28° C. (E. coli strain MG1655 [2]; [17]): 0.001%
- % survival after 30 min exposure at 42° C. (E. coli strain MG1655 [2]; [17]): 0%
- % survival after 30 min exposure at 0° C. (E. coli strain MG1655 [2]; [18]): 50%
- % survival after 30 min exposure at 0° C. (E. coli strain MG1655 [2]; [19]): 10%
- % survival after 30 min exposure at 0° C. (E. coli strain MG1655 [2]; [20]): 1%
- % survival after 30 min exposure at 0° C. (E. coli strain MG1655 [2]; [21]): 1%
- % survival after 30 min exposure at 42° C. (E. coli strain MG1655 [2]; […] (w/v) 1-butanol, grown at 28° C.): 0%
- % survival after 30 min exposure at 0° C. (E. coli strain MG1655 [2]; [22]): 100%
- % survival after 30 min exposure at 0° C. (E. coli strain MG1655 [2]; [23]): 100%
- % survival after 30 min exposure at 42° C. (E. coli strain MG1655 [2]; [23]): 0%
